Results published in patent US20090104214A1 (priority 2004, published 2009).

Key:
PA63-LF binding = PA63-LF binding (Bacillus anthracis, UniProt P13423)
PA63 [1] = target: T1, PA63 (Bacillus anthracis, UniProt P13423)
[2] = target: anthrax lethal toxin (PA83 and LF) (Bacillus anthracis, UniProt P13423); details: rat, in vivo, iv
PA63 [3] = target: T1, PA63; remark: listed apart in the source
LF = LF (Bacillus anthracis, UniProt P15917)
[4] = target: purified recombinant PA83 (Bacillus anthracis, UniProt P13423)
Chain of purified recombinant PA83 (P13423 30-764 limits assumed): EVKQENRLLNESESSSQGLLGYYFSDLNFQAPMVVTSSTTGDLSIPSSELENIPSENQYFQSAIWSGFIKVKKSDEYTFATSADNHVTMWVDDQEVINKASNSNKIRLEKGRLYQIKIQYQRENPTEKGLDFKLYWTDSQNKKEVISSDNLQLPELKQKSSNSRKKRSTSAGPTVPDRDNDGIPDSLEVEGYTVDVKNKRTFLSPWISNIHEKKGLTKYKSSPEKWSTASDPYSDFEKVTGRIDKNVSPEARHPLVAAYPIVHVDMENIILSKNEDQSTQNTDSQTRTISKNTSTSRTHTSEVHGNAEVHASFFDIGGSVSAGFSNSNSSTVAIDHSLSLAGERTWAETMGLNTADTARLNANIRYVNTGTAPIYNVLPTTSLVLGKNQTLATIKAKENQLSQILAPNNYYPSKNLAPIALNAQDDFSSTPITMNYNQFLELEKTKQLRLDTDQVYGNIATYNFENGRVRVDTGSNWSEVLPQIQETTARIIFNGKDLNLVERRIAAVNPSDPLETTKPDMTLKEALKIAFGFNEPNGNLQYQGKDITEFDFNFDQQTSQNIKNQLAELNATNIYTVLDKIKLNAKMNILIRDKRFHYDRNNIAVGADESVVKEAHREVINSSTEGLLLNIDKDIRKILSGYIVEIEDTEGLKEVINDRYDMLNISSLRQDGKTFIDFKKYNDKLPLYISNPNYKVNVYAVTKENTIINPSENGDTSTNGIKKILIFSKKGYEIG

[5] = system: J774A.1 cells incubated with PA83 and LF; format: cell-based, mouse

T1 sequence (P13423 197-764 limits assumed): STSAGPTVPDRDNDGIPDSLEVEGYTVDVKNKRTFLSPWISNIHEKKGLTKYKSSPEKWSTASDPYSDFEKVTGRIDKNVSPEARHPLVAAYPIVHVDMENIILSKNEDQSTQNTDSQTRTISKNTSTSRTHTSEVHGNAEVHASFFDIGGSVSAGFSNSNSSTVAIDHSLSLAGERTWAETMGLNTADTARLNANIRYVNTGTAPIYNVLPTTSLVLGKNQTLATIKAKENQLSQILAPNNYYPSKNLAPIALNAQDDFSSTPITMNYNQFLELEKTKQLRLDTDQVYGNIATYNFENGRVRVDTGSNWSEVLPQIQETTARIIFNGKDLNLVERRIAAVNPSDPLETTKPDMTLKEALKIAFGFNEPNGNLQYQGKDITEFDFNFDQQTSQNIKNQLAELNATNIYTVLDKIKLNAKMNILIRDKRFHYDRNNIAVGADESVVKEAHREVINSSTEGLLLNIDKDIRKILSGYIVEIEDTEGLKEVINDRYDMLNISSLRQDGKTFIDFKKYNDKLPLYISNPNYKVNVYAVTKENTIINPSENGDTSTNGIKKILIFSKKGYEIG
Chain of PA63-LF binding (P13423 197-764 limits assumed): as above
Chain of anthrax lethal toxin (PA83 and LF) (P13423 197-764 limits assumed): as above
Chain of LF (P15917 34-809 limits assumed): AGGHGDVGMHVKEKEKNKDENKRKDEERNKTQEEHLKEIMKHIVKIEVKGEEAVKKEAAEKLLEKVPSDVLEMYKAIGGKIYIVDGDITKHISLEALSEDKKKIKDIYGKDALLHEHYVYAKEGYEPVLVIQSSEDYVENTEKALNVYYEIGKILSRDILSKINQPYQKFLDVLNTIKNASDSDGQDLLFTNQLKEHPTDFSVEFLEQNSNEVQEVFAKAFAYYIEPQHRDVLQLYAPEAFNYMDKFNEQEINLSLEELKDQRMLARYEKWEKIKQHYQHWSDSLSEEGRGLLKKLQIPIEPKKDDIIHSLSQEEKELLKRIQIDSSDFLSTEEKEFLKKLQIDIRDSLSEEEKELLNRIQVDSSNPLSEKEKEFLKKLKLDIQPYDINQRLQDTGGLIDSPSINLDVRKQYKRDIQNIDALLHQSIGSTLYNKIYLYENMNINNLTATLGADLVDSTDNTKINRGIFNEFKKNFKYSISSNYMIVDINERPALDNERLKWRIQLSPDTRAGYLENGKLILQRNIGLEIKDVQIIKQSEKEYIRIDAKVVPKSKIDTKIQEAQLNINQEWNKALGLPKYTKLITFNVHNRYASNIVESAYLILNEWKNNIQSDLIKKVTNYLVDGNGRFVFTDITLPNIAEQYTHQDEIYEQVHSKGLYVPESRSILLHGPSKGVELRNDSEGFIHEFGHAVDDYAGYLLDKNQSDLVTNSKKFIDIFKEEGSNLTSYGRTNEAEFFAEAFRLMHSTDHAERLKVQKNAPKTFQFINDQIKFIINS

Substance	effective in blocking the interaction of PA with LF (summary statement) (PA63-LF binding)	inhibition of PA63-LF binding in ELISA, substitution of position 2 of MAP 3 (PA63-LF binding)	also measured
NVMTYWWLAPPL	Particularly effective		inhibition of PA63-LF binding in ELISA, alanine scanning of MAP3 (PA63-LF binding): better efficiency
NYMTYWWLDPPL	Particularly effective	good efficiency	
NVMTYWWLDPPA	Particularly effective		inhibition of PA63-LF binding in ELISA, alanine scanning of MAP3 (PA63-LF binding): better efficiency
NSMTYWWLDPPL	Particularly effective	good efficiency	
YWWLDPP	Particularly effective		
YWWLTPPQ	Particularly effective		inhibition of PA63-LF binding in ELISA, shortening of MAP2 and re-elongation of YWWLTP (PA63-LF binding): even better efficiency
NGMTYWWLDPPL	Particularly effective	good efficiency	
YWWLEPP	Particularly effective		
NVMTYWWLDPPL [p3]			equilibrium association constant KA of peptide-PA63 binding (PA63 [1]): 3.4e+07 M⁻¹; koff (PA63 [1]): 0.0004 s⁻¹; kon (PA63 [1]): 14000 M⁻¹ s⁻¹
NNMTYWWLDPPL	Particularly effective	good efficiency	
NTMTYWWLDPPL	Particularly effective	good efficiency	
NDMTYWWLDPPL	Particularly effective	good efficiency	
TLAYWWLTPSNP	Particularly effective		
YWWLKPP	Particularly effective		
YWWLTPP	Particularly effective		inhibition of PA63-LF binding in ELISA, shortening of MAP2 and re-elongation of YWWLTP (PA63-LF binding): superior inhibitory efficiency
YWWLTPPP [MAP YWWLTPPP]	Particularly effective		neutralization of lethal toxin toxicity in rats [2]: completely neutralized toxicity; inhibition of PA63-LF binding in ELISA, shortening of MAP2 and re-elongation of YWWLTP (PA63-LF binding): even better efficiency
TLPYWWLTPSNP [p2]			equilibrium association constant KA of peptide-PA63 binding (PA63 [1]): 7.2e+06 M⁻¹; koff (PA63 [1]): 0.0007 s⁻¹; kon (PA63 [1]): 5000 M⁻¹ s⁻¹
NEMTYWWLDPPL	Particularly effective	good efficiency	
AVMTYWWLDPPL	Particularly effective		inhibition of PA63-LF binding in ELISA, alanine scanning of MAP3 (PA63-LF binding): better efficiency
YWWLTP			inhibition of PA63-LF binding in ELISA, shortening of MAP2 and re-elongation of YWWLTP (PA63-LF binding): minimal sequence able to inhibit PA-LF binding
NVMTYWWLDPPL [MAP3]	Particularly effective		neutralization of lethal toxin toxicity in rats [2]: completely neutralized toxicity; binding to PA63 in ELISA (PA63 [3]): specifically bound; binding to LF in ELISA (LF): did not bind; binding to purified recombinant PA83 in ELISA [4]: did not bind; IC50 of inhibition of PA63-LF binding in ELISA, compared with MAP2 (PA63-LF binding): about one log lower than that of MAP2
YWWLQPP	Particularly effective		
NPMTYWWLDPPL	Particularly effective	good efficiency	
NQMTYWWLDPPL	Particularly effective	good efficiency	
YWWLTPPA	Particularly effective		inhibition of PA63-LF binding in ELISA, shortening of MAP2 and re-elongation of YWWLTP (PA63-LF binding): even better efficiency
NAMTYWWLDPPL [MAP3V/A]	Particularly effective		neutralization of lethal toxin toxicity in rats [2]: completely neutralized toxicity; IC50 for inhibition of PA83/LF-induced cell mortality, compared with MAP3 [5]: one log lower than that of MAP3; inhibition of PA63-LF binding in ELISA, alanine scanning of MAP3 (PA63-LF binding): better efficiency
YWWLHPP	Particularly effective		
YWWLTPPP [8mer peptide YWWLTPPP]			KA fold higher than that of lead 12mer p2 (PA63 [1]): about 10 fold; equilibrium association constant KA of peptide-PA63 binding (PA63 [1]): 6.8e+07 M⁻¹; koff (PA63 [1]): 0.0013 s⁻¹; kon (PA63 [1]): 88000 M⁻¹ s⁻¹
TLPYWWLTPSNP [MAP2]	Particularly effective		binding to PA63 in ELISA (PA63 [3]): specifically bound; binding to LF in ELISA (LF): did not bind; binding to purified recombinant PA83 in ELISA [4]: did not bind
